Experimental data reported in US12180226B2, “Spirotricycle RIPK1 inhibitors and methods of uses thereof” (Merck Sharp & Dohme LLC, priority 2021, dated 2024).
Counter-ions that a name gives are not always drawn.

target: RIPK1 (recombinant GST-RIPK1 kinase domain, residues 1-327) (Homo sapiens (Human), UniProt Q13546); test: RIPK1-ADP-Glo Enzymatic Assay; type: biochemical; details: ADP-Glo; 25 nM GST-RIPK1, 300 μM ATP; assay lower limit ~25 nM; read-out: RIPK1 V0 Ec50
Procedure, shortened: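 GST-tagged kinase domain (residues 1-327, Sf21-expressed), 25 nM, pre-incubated 30 min with compound at ambient temperature, then reacted 150 min with 300 μM ATP and 3 μM dephosphorylated MBP in HEPES pH 7.3 buffer. ADP measured by ADP-Glo luminescence; EC50 from ten-point titration (top 100000 nM), four-parameter fit.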

Chain of RIPK1 (recombinant GST-RIPK1 kinase domain, residues 1-327) (Q13546 1-327): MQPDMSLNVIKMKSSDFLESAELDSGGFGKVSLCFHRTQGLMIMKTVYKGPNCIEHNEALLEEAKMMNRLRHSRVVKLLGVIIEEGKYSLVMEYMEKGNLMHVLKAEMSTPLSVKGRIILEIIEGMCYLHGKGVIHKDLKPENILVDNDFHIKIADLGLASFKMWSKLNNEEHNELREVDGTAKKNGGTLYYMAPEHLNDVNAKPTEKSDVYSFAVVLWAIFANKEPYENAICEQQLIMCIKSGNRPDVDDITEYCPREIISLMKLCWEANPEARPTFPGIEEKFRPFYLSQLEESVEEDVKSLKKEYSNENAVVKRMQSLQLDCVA

Compound | EC50
NC(=O)c1nc(N2CCC3(CC2)O[C@@H]2CC[C@@H](c4cc(F)cc(F)c4)N2C3=O)ncc1F [Example 4.184, 2-[(5′S,7a′R)-5′-(3,5-difluorophenyl)-3′-oxotetrahydro-1H,3′H-spiro[piperidine-4,2′-pyrrolo[2,1-b] [1,3]oxazol]-1-yl]-5-fluoropyrimidine-4-carboxamide] | < 25 nM
O=C1N2[C@@H](CC[C@H]2c2cc(F)cc(F)c2)OC12CCN(c1ccnc3c(F)cnn13)CC2 [Example 3.1, (5′S,7a′R)-5′-(3,5-difluorophenyl)-1-(3-fluoropyrazolo[1,5-a]pyrimidin-7-yl)tetrahydro-3′H-spiro[piperidine-4,2′-pyrrolo[2,1-b]oxazol]-3′-one] | < 25 nM
CC1CC2(CCN1c1ccnc3c(F)cnn13)O[C@@H]1CC[C@@H](c3ccccc3)N1C2=O (stereo partly drawn) [Example 4.224, (4R,5′S,7a′R)-1-(3-fluoropyrazolo[1,5-a]pyrimidin-7-yl)-2-methyl-5′-phenyltetrahydro-3′H-spiro[piperidine-4,2′-pyrrolo[2,1-b] [1,3]oxazol]-3′-one] | < 25 nM
N#Cc1cnc(N2CCC3(CC2)O[C@@H]2CC[C@@H](c4cc(F)cc(F)c4)N2C3=O)s1 [Example 4.101, 2-((5′S,7a′R)-5′-(3,5-difluorophenyl)-3′-oxotetrahydro-3′H-spiro[piperidine-4,2′-pyrrolo[2,1-b]oxazol]-1-yl)thiazole-5-carbonitrile] | 40.4 nM
CSc1cnc(N2CCC3(CC2)O[C@@H]2CC[C@@H](c4cc(F)cc(F)c4)N2C3=O)nc1 [Example 4.55, (5′S,7a′R)-5′-(3,5-difluorophenyl)-1-[5-(methylsulfanyl)pyrimidin-2-yl]tetrahydro-3′H-spiro[piperidine-4,2′-pyrrolo[2,1-b] [1,3]oxazol]-3′-one] | 246 nM
N#Cc1ccc(N2CCC3(CC2)O[C@@H]2CC[C@@H](c4ccccc4)N2C3=O)n2ncc(C(F)F)c12 [Example 4.179, 3-(difluoromethyl)-7-[(5′S,7a′R)-3′-oxo-5′-phenyltetrahydro-1H,3′H-spiro[piperidine-4,2′-pyrrolo[2,1-b] [1,3]oxazol]-1-yl]pyrazolo[1,5-a] pyridine-4-carbonitrile] | < 25 nM
N#Cc1cncc([C@@H]2CC[C@H]3OC4(CCN(c5ccnc6c(F)cnn56)CC4)C(=O)N32)c1 [Example 4.127, 5-[(5′S,7a′R)-1-(3-fluoropyrazolo[1,5-a]pyrimidin-7-yl)-3′-oxotetrahydro-3′H-spiro[piperidine-4,2′-pyrrolo[2,1-b] [1,3]oxazol]-5′-yl]pyridine-3-carbonitrile] | < 25 nM
O=C1N2[C@@H](CC[C@H]2c2ccccc2)OC12CCN(c1ncnn3ccnc13)CC2 [Example 4.227, (5′S,7a′R)-1-(imidazo[2,1-f] [1,2,4]triazin-4-yl)-5′-phenyltetrahydro-3′H-spiro[piperidine-4,2′-pyrrolo[2,1-b] [1,3]oxazol]-3′-one] | 27.3 nM
O=C(c1ccccc1)N1CCC2(CC1)SC1CC[C@H](c3cc(F)cc(F)c3)N1C2=O (stereo partly drawn) [Example 1.21, (5′R)-1-benzoyl-5′-(3,5-difluorophenyl)tetrahydro-3′H-spiro[piperidine-4,2′-pyrrolo[2,1-b]thiazol]-3′-one] | 501 nM
Cc1ccccc1[C@@H]1CC[C@H]2OC3(CCN(c4ccnc5c(F)cnn45)CC3)C(=O)N21 [Example 4.255, (5′S,7a′R)-1-(3-fluoropyrazolo[1,5-a]pyrimidin-7-yl)-5′-(2-methylphenyl)tetrahydro-3′H-spiro[piperidine-4,2′-pyrrolo[2,1-b] [1,3]oxazol]-3′-one] | 40.3 nM
N#Cc1ccc(N2CCC3(CC2)O[C@@H]2CC[C@@H](c4cc(F)cc(F)c4)N2C3=O)c(F)c1 [Example 4.24, 4-[(5′S,7a′R)-5′-(3,5-difluorophenyl)-3′-oxotetrahydro-1H,3′H-spiro[piperidine-4,2′-pyrrolo[2,1-b] [1,3]oxazol]-1-yl]-3-fluorobenzonitrile] | < 25 nM
NC(=O)c1ccc(N2CCC3(CC2)O[C@@H]2CC[C@@H](c4ccccc4F)N2C3=O)n2ncnc12 [Example 4.151, 5-[(5′S,7a′R)-5′-(2-fluorophenyl)-3′-oxotetrahydro-1H,3′H-spiro[piperidine-4,2′-pyrrolo[2,1-b] [1,3]oxazol]-1-yl][1,2,4]triazolo[1,5-a] pyridine-8-carboxamide] | < 25 nM
N#Cc1cncc(N2CCC3(CC2)O[C@@H]2CC[C@@H](c4ccccc4)N2C3=O)n1 [Example 4.7, 6-[(5′S,7a′R)-3′-oxo-5′-phenyltetrahydro-1H,3′H-spiro[piperidine-4,2′-pyrrolo[2,1-b] [1,3]oxazol]-1-yl]pyrazine-2-carbonitrile] | 113 nM

Next, values leading:

EC50 | Compound
32 nM | O=C1N2[C@@H](CC[C@H]2c2cc(F)cc(F)c2)OC12CCN(c1ccc(Cl)c3nccn13)CC2 [Example 13.16, (5′S,7a′R)-1-(8-chloroimidazo[1,2-a]pyridin-5-yl)-5′-(3,5-difluorophenyl)tetrahydro-3′H-spiro[piperidine-4,2′-pyrrolo[2,1-b]oxazol]-3′-one, TFA salt]
757 nM | O=C1N2[C@@H](CC[C@H]2c2ccccc2)OC12CCN(c1nnc(C(F)(F)F)s1)CC2 [Example 11.27, (5′S,7a′R)-5′-phenyl-1-[5-(trifluoromethyl)-1,3,4-thiadiazol-2-yl]tetrahydro-3′H-spiro[piperidine-4,2′-pyrrolo[2,1-b][1,3]oxazol]-3′-one]
81.1 nM | O=C(c1nnn2ccccc12)N1CCC2(CC1)O[C@@H]1CC[C@@H](c3cc(F)cc(F)c3)N1C2=O [Example 5.66, (5′S,7a′R)-1-([1,2,3]-triazolo-[1,5-a]pyridine-3-carbonyl)-5′-(3,5-difluoro-phenyl)tetrahydro-3′H-spiro[piperidine-4,2′-pyrrolo[2,1-b]oxazol]-3′-one]
25 nM | N#Cc1cccc(C(=O)N2CCC3(CC2)O[C@@H]2CC[C@@H](c4cc(F)cc(F)c4)N2C3=O)c1 [Example 5.17, 3-((5′S,7a′R)-5′-(3,5-difluorophenyl)-3′-oxo-tetrahydro-3′H-spiro [piperidine-4,2′-pyrrolo-[2,1-b]oxazole]-1-carbon-yl)benzonitrile]
< 25 nM | O=C(c1cccc(N2CCCC2=O)c1)N1CCC2(CC1)O[C@@H]1CC[C@@H](c3cc(F)cc(F)c3)N1C2=O [Example 6.56, (5′S,7a′R)-5′-(3,5-difluorophenyl)-1-[3-(2-oxopyrrolidin-1-yl)benzene-1-carbon-yl]tetrahydro-3′H-spiro[piperidine-4,2′-pyrrolo[2,1-b][1,3]-oxazol]-3′-one]
451 nM | O=C(c1nnc(-c2ccccn2)s1)N1CCC2(CC1)O[C@@H]1CC[C@@H](c3cc(F)cc(F)c3)N1C2=O [Example 6.45, (5′S,7a′R)-5′-(3,5-difluorophenyl)-1-[5-(pyridin-2-yl)-1,3,4-thiadiazole-2-carbon-yl]tetrahydro-3′H-spiro[piperidine-4,2′-pyrrolo[2,1-b][1,3]oxazol]-3′-one]
< 25 nM | O=C(c1cc2ccccn2c1)N1CCC2(CC1)O[C@@H]1CC[C@@H](c3cc(F)cc(F)c3)N1C2=O [Example 5.73, (5′S,7a′R)-5′-(3,5-difluoro-phenyl)-1-(indolizine-2-carbonyl)tetrahydro-3′H-spiro[piperidine-4,2′-pyrrolo[2,1-b]oxazol]-3′-one]
36.1 nM | CC(C)Oc1cccc(C(=O)N2CCC3(CC2)O[C@@H]2CC[C@@H](c4cc(F)cc(F)c4)N2C3=O)n1 [Example 6.90, (5′S,7a′R)-5′-(3,5-difluorophenyl)-1-{6-[(propan-2-yl)oxy]-pyridine-2-carbonyl} tetrahydro-3′H-spiro [piperidine-4,2′-pyrrolo[2,1-b][1,3]-oxazol]-3′-one]
< 25 nM | O=C(c1cccc(C2CC2)c1)N1CCC2(CC1)O[C@@H]1CC[C@@H](c3cccc(F)c3)N1C2=O [Example 6.118, (5′S,7a′R)-1-(3-cyclopropylbenzene-1-carbonyl)-5′-(3-fluorophenyl)tetra-hydro-3′H-spiro [piperidine-4,2′-pyrrolo[2,1-b][1,3]oxazol]-3′-one]
56 nM | O=C1N2[C@@H](CC[C@H]2c2cc(F)cc(F)c2)OC12CCN(c1cncc3ncnn13)CC2 [Example 13.4, (5′S,7a′R)-1-([1,2,4]triazolo[1,5-a]pyrazin-5-yl)-5′-(3,5-difluorophenyl)tetrahydro-3′H-spiro[piperidine-4,2′-pyrrolo[2,1-b]oxazol]-3′-one, TFA salt]
413 nM | N#CCc1nc(C(=O)N2CCC3(CC2)O[C@@H]2CC[C@@H](c4cc(F)cc(F)c4)N2C3=O)cs1 [Example 6.29, {4-[(5′S,7a′R)-5′-(3,5-difluorophenyl)-3-oxo-tetrahydro-1H,3′H-spiro[piperidine-4,2′-pyrrolo[2,1-b][1,3]oxazole]-1-carbonyl]-1,3-thiazol-2-yl} acetonitrile]
192 nM | Cc1ccc(C(=O)N2CCC3(CC2)O[C@@H]2CC[C@@H](c4cc(F)cc(F)c4)N2C3=O)nc1C [Example 6.93, (5′S,7a′R)-5′-(3,5-difluorophenyl)-1-(5,6-dimethylpyridine-2-carbonyl)tetrahydro-3′H-spiro[piperidine-4,2′-pyrrolo[2,1-b] [1,3]oxazol]-3′-one]
25.1 nM | COc1cccc(C(=O)N2CCC3(CC2)O[C@@H]2CC[C@@H](c4cc(F)cc(F)c4)N2C3=O)n1 [Example 6.12, (5′S,7a′R)-5′-(3,5-difluorophenyl)-1-(6-methoxypyridine-2-carbonyl)tetrahydro-3′H-spiro[piperidine-4,2′-pyrrolo[2,1-b] [1,3]oxazol]-3′-one]
60.8 nM | O=C(c1coc(Cl)n1)N1CCC2(CC1)O[C@@H]1CC[C@@H](c3cccc(F)c3)N1C2=O [Example 6.127, (5′S,7a′R)-1-(2-chloro-1,3-oxazole-4-carbon-yl)-5′-(3-fluorophenyl)-tetrahydro-3′H-spiro [piperidine-4,2′-pyrrolo[2,1-b][1,3]oxazol]-3′-one]
